Data from US20230117205A1, “B7-H4 ANTIBODY-DRUG CONJUGATES FOR THE TREATMENT OF CANCER” (SEAGEN INC., priority 2021, published 2023).

Key:
MX-1 xenograft model = assay: MX-1 xenograft, Study MX1-2; assay type: in vivo, SCID mice; conditions: 3 mg/kg, three weekly doses, i.p.
Method: Tumor volume was measured twice weekly until study day 84.
Female SCID mice were implanted with 5×10^5 MX1 tumor cells in 25% Matrigel H C (Corning #354248) subcutaneously. Once tumor volumes reached 100 mm^3, mice were randomized into treatment groups of 5 mice each and dosed with 3 mg/kg of ADC every seven days for three total doses (q7dx3). Tumor volumes were measured twice per week, and animals were euthanized when tumor volume reached 700-1000 mm^3. Stock concentrations of ADC were diluted to a desired concentration (with 0.01% Tween20 in PBS) and injected i.p. into each treatment group.

[1] = test system: MDA-MB-468 xenograft tumors; assay: MDA-MB-468 xenograft, single dose, tumor volume; assay type: in vivo, NSG mice; conditions: single 3 mg/kg dose, i.p.
Method: Tumors were harvested 7 days after treatment, cut in half, and processed for RNA-seq or IHC. […]
Specifically, female NSG mice were implanted with 1×10^6 MDA-MB-468 cells in 25% Matrigel H C subcutaneously. Once tumor volumes reached ˜250-300 mm^3, mice were randomized into treatment groups of 6 mice each and treated with a single 3 mg/kg dose of ADC or mAb, or vehicle control (20 mM Histidine buffer, pH 6.0) injected intraperitoneally (i.p.). Stock concentrations of ADC were diluted to desired concentration with 20 mM Histidine buffer, pH 6.0 or and stock concentration of mAb were diluted to desired concentration with 0.01% Tween20 in PBS. Twenty-four hours prior to dosing, each animal was treated with 10 mg/kg hIVIG. One week following treatment, tumors were harvested, cut in half, and processed for RNAseq (frozen at −80° C.) or formalin-fixed and paraffin-embedded for immunohistochemical (IHC) analysis.

TNBC PDX models = assay: TNBC patient-derived xenograft models; assay type: in vivo, mice; conditions: 3 mg/kg q7dx3; for % TGI: vs untreated
Method: Tumor size and body weight were measured twice weekly, and the study was terminated when tumors in the control group reached 1500 mm^3 or up to Day 28, whichever occurred first, or maximum up to Day 60.
Specifically, stock mice were bilaterally implanted with fragments from one of the Champions TumorGraft® models representing human triple negative breast cancer. After the tumors reached 1000-1500 mm^3, they were harvested, and the tumor fragments were implanted subcutaneously (s.c.) in the left flank of the female study mice. Each animal was implanted with a specific passage lot and documented. Tumor growth was monitored twice a week using digital calipers, and the tumor volume (TV) was calculated using the formula (0.52×[length×width^2]). When the TV reached approximately 150-300 mm^3, animals were matched by tumor size and assigned into control (untreated) or treatment groups (n=1-3 animals/group). Each animal in the treatment groups was dosed with 10 mg/kg hIVIG (Grifolds), followed by 3 mg/kg of ADC every seven days for three total doses (q7dx3). Tumor size and body weight were measured twice weekly, and the study was terminated when tumors in the control group reached 1500 mm^3 or up to Day 28, whichever occurred first, or maximum up to Day 60.
Inhibition of tumor growth was determined by calculating the percent TGI on the day at which animals in the control group were terminated (100%×[1−(final MTV−initial MTV of a treated group)/(final MTV−initial MTV of the control group)]). Treatment started on Day 0.

Q: For “SGN-B7H4V: ADC of fully human IgG1 anti-B7-H4 mAb conjugated to monomethyl auristatin E (MMAE) via a protease-cleavable valine-citrulline linker (vedotin)”, which “anti-tumor activity (tumor volume)” value (MX-1 xenograft model) is on record?
A: regression of tumor volumes in all mice

Q: And the “mice with sustained regression” value (MX-1 xenograft model)?
A: 4 of the 5

Q: And the tumor volume [1]?
A: reduction in tumor volume

Q: What about the “PDX models with tumor regression or tumor growth delay (e.g. TGI>50%)” value (TNBC PDX models; TNBC) of the same substance?
A: 9/11

Q: What about the “% TGI” value (TNBC PDX models; TNBC_1, Day 13) of the same substance?
A: 111%

Q: What about the “% TGI” value (TNBC PDX models; TNBC_2, Day 7) of the same substance?
A: 86%

Q: What about the “% TGI” value (TNBC PDX models; TNBC_3, Day 20) of the same substance?
A: 71%

Q: And the “% TGI” value (TNBC PDX models; TNBC_4, Day 20)?
A: 55%

Q: And the “% TGI” value (TNBC PDX models; TNBC_5, Day 9)?
A: 106%

Q: And the “% TGI” value (TNBC PDX models; TNBC_6, Day 20)?
A: 62%

Q: And the “% TGI” value (TNBC PDX models; TNBC_7, Day 20)?
A: 25%

Q: And the “% TGI” value (TNBC PDX models; TNBC_8, Day 17)?
A: 67%

Q: What about the “% TGI” value (TNBC PDX models; TNBC_9, Day 22) of the same substance?
A: 26%

Q: What about the “% TGI” value (TNBC PDX models; TNBC_10, Day 27) of the same substance?
A: 100%

Q: What about the “% TGI” value (TNBC PDX models; TNBC_11, Day 52) of the same substance?
A: 109%
